What all share (assay): Fungal susceptibility test, broth microdilution method (MIC)
What all share (assay type): cell-based
On the technique in general: Dilution methods test growth across graded concentrations, often in twofold steps.

In experiment [1] the test system is Trichophyton rubrum NBRC 5467. The note with it: NBRC5467, 96 h. As to the method: (§1) The fungal susceptibility tests on test substances were conducted by the broth microdilution method equivalent to Clinical and Laboratory Standards Institute method. The medium used in the susceptibility tests was RPMI1640 adjusted to pH 7.0 with 0.165 mol/L morpholinepropanesulfonic acid (MOPS) and 50% sodium hydroxide (RPMI/MOPS). Each test substance was dissolved in DMSO and serially diluted in 2-fold increments with DMSO on a 96-well microplate. Then, the dilutions were dispensed by 1 μL to a 96-well microplate. Candida albicans TIMM 1623 cultured overnight at 35° C. in Sabouraud's agar medium was suspended in sterile saline. The number of cells was counted under a biological microscope, and the fungal suspension was diluted with RPMI/MOPS to prepare the inoculum solution (approximately 1×10^3 cells/mL). Alternatively, Candida albicans TIMM 1623 stored at −80° C. was diluted with RPMI/MOPS to prepare the inoculum solution (approximately 1×10^3 CFU/mL). Aspergillus fumigatus TIMM 0063 stored at 5° C. was diluted with RPMI/MOPS to prepare the inoculum solution (approximately 1×10^4 CFU/mL). Trichophyton rubrum NBRC 5467 stored at 5° C. or −80° C. was diluted with RPMI/MOPS to prepare the inoculum solution (approximately 2×10^3 CFU/mL). The 199 μL of inoculum solution was dispensed to each well to prepare the microplate containing the designated concentrations of test substance, medium and fungal cells. Candida albicans and Aspergillus fumigatus were cultured at 35° C. for 2 days. Trichophyton rubrum was cultured at 35° C. for 4 days. After the completion of culture, MIC was determined by visual observation. The MICs of Candida albicans and Aspergillus fumigatus were set to the lowest concentration at which approximately 50% growth inhibition was seen, when compared with a growth control without the addition of the test substance. The MIC of Trichophyton rubrum was set to the lowest concentration at which approximately 80% growth inhibition was seen, when compared with a growth control without the addition of the test substance.

The test system of experiment [2] is Candida albicans TIMM 1623. The note with it: TIMM1623, 48 h. How it is done: as §1
Experiment [3] relates to Aspergillus fumigatus TIMM 0063. The note with it: TIMM0063, 48 h. How it is done:
as §1

The mark [4] stands for this setting: RPMI/MOPS pH 7.0, 35° C. for 4 days, visual, lowest concentration with approximately 80% growth inhibition, read-out: MIC (μg/mL) T. rubrum NBRC5467.
Setting [5] is: RPMI/MOPS pH 7.0, 35° C. for 2 days, visual, lowest concentration with approximately 50% growth inhibition, read-out: MIC (μg/mL) C. albicans TIMM1623.
The mark [6] stands for this setting: RPMI/MOPS pH 7.0, 35° C. for 2 days, visual, lowest concentration with approximately 50% growth inhibition, read-out: MIC (μg/mL) A. fumigatus TIMM 0063.

The structures appear in SMILES notation. In brackets after ≈: the same amount, converted by molar mass. Counter-ions that a name gives are not always drawn. Like-named read-outs stand apart in the source and are kept apart here.

Consider `CCN(C)/C=N/c1cc(C)c(Cc2nc(-c3ccc(C)cc3)ns2)cc1C` [Example 16, N′-(2,5-Dimethyl-4-{[3-(4-methylphenyl)-1,2,4-thiadiazol-5-yl]methyl}phenyl)-N-ethyl-N-methylimidoformamide], for which the MIC in experiment [1] (setting [4]) is 0.002 µg/mL (≈ 0.00528 µM); in experiment [2] (setting [5]) it was 0.0313 µg/mL (≈ 0.0827 µM); in experiment [3] (setting [6]), 0.0313 µg/mL (≈ 0.0827 µM).
As for `CCN(C)/C=N/c1cc(C)c(Cc2nc(-c3cc(F)c(C)cc3F)cs2)cc1C` [Example 58, N′-(4-{[4-(2,5-Difluoro-4-methylphenyl)-1,3-thiazol-2-yl]methyl}-2,5-dimethylphenyl)-N-ethyl-N-methylimidoformamide hydrobromide], the MIC came out at 0.001 µg/mL in experiment [1] (setting [4]), 0.0156 µg/mL in experiment [2] (setting [5]) and 0.0625 µg/mL in experiment [3] (setting [6]).
For `CCN(C)/C=N/c1cc(C)c(Cc2nc(-c3ccc(C)cc3F)cs2)cc1C` [Example 59, N-Ethyl-N′-(4-{[4-(2-fluoro-4-methylphenyl)-1,3-thiazol-2-yl]methyl}-2,5-dimethylphenyl)-N-methylimidoformamide dihydrochloride], the MIC in experiment [1] (pH 7, read-out: MIC (μg/mL) T. rubrum NBRC5467) was 0.0005 µg/mL; in experiment [2] (pH 7, read-out: MIC (μg/mL) C. albicans TIMM1623) it was 0.0156 µg/mL; in experiment [3] (pH 7, read-out: MIC (μg/mL) A. fumigatus TIMM 0063) it was 0.0313 µg/mL.

The values are drawn from patent US9045466B2, “Amidine compound or salt thereof” (priority 2011, dated 2015).
